Data taken from US7794991B2, “Stemphones and production thereof” (The Kitasato Institute, priority 2005, dated 2010).
Like-named read-outs stand apart in the source and are kept apart here.

Experiments:
[1] = test system: Acholeplasma laidlawii KB174; test: Antimicrobial action, paper disc method; assay type: cell-based; conditions: 5 μg/disc, disc diameter 6 mm, 37° C., 24 hours
[2] = test system: Bacillus subtilis KB211 (PCI 219); test: Antimicrobial action, paper disc method; assay type: cell-based; conditions: 5 μg/disc, disc diameter 6 mm, 37° C., 24 hours
[3] = test system: Micrococcus luteus KB212 (ATCC9341); test: Antimicrobial action, paper disc method; assay type: cell-based; conditions: 5 μg/disc, disc diameter 6 mm, 37° C., 24 hours
[4] = test system: Stapylococcus aureus KB210 (ATCC6538p); test: Antimicrobial action, paper disc method; assay type: cell-based; conditions: 5 μg/disc, disc diameter 6 mm, 37° C., 24 hours
[5] = test system: methicillin resistant Staphylococcus aureus K24; test: Enhancing effect for activity of imipenem by paper disk method; conditions: for diameter of inhibition zone in the presence of imipenem / diameter of inhibition zone, stemphone alone: 5 μg disc, 37° C., 20 hours; for diameter of inhibition zone in the presence of imipenem: MHA medium with imipenem 10 μg/ml; for diameter of inhibition zone, stemphone alone: MHA medium without imipenem
MRSA = test: Enhancing activity against various antimicrobial agents by broth microdilution method (MIC); assay type: cell-based, Staphylococcus aureus; conditions: for Ratio (−/+stemphone C) of MIC: MIC alone / MIC with stemphone C 16 μg/ml, fold enhancement; for MIC: Staphylococcus aureus, MRSA, read-out: MIC, antibacterial agent alone (−); for MIC, +stemphone C: in combination with stemphone C 16 μg/ml
[6] = without stemphone C, 37° C., 20 hours

Row | Structure (SMILES) | Ratio (−/+stemphone C) of MIC (MRSA) | MIC (MRSA; [6]) [µg/mL] | MIC, +stemphone C (MRSA; 37° C., 20 hours) [µg/mL] | further results
1 | C/C=C(\C)C(OC(C)=O)C(C)C1=CC(=O)C2=C(OC3(C)CCC4OC(C(C)(C)O)CC(O)C4(C)C3C2O)C1=O (centres unmarked) [Stemphone B] | – | – | – | zone of inhibition at 5 µg/disc [1]: 10 mm; zone of inhibition at 5 µg/disc [2]: 10 mm; zone of inhibition at 5 µg/disc [3]: 14 mm; zone of inhibition at 5 µg/disc [4]: 8 mm; diameter of inhibition zone in the presence of imipenem [5]: 15 mm; diameter of inhibition zone, stemphone alone [5]: not observed
2 | C/C=C(\C)C(OC(C)=O)C(C)C1=CC(=O)C2=C(OC3(C)CCC4OC(C(C)(C)O)CCC4(C)C3C2)C1=O (centres unmarked) [Stemphone C] | – | – | – | zone of inhibition at 5 µg/disc [1]: 9 mm; zone of inhibition at 5 µg/disc [2]: 9 mm; zone of inhibition at 5 µg/disc [3]: 14 mm; zone of inhibition at 5 µg/disc [4]: 8 mm; effect of stemphone C itself on growth of test organism (MRSA; final concentration 16 μg/ml): did not affect growth; diameter of inhibition zone in the presence of imipenem [5]: 20 mm; diameter of inhibition zone, stemphone alone [5]: not observed; enhancing activity for imipenem ([5]; paper disk method, in words): strong enhancing activity
3 | CN(C)[C@@H]1C(O)=C(C(N)=O)C(=O)[C@@]2(O)C(O)=C3C(=O)c4c(O)cccc4[C@@](C)(O)[C@H]3C[C@@H]12 [tetracycline] | 1 | 32 | 32 | –
4 | CN[C@H](CC(C)C)C(=O)N[C@H]1C(=O)N[C@@H](CC(N)=O)C(=O)N[C@H]2C(=O)N[C@H]3C(=O)N[C@H](C(=O)N[C@H](C(=O)O)c4cc(O)cc(O)c4-c4cc3ccc4O)[C@H](O)c3ccc(c(Cl)c3)Oc3cc2cc(c3O[C@@H]2O[C@H](CO)[C@@H](O)[C@H](O)[C@H]2O[C@H]2C[C@](C)(N)[C@H](O)[C@H](C)O2)Oc2ccc(cc2Cl)[C@H]1O [vancomycin] | 1 | – | 0.5 | MIC (MRSA; 20 h): 0.5 µg/mL

The next lines start with results.

Row | Ratio (−/+stemphone C) of MIC (MRSA) | MIC (MRSA; [6]) [µg/mL] | MIC, +stemphone C (MRSA; 37° C., 20 hours) [µg/mL] | Structure (SMILES) | further results
5 | 16 | 64 | 4 | Cc1nnc(SCC2=C(C(=O)O)N3C(=O)[C@@H](NC(=O)Cn4cnnn4)[C@H]3SC2)s1 [cefazolin] | –
6 | 512 | 512 | 1 | Cc1onc(-c2ccccc2Cl)c1C(=O)N[C@@H]1C(=O)N2[C@@H]1SC(C)(C)[C@@H]2C(=O)O [cloxacillin] | –
7 | 512 | 16 | 0.03 | C[C@@H](O)[C@H]1C(=O)N2C(C(=O)O)=C(SCCN=CN)C[C@H]12 [imipenem] | –
8 | 4 | 2 | 0.5 | [H]/N=C(/N)N[C@H]1[C@H](O)[C@@H](O)[C@H](O[C@@H]2O[C@@H](C)[C@](O)(C=O)[C@H]2O[C@@H]2O[C@@H](CO)[C@H](O)[C@@H](O)[C@@H]2NC)[C@@H](N/C(N)=N\[H])[C@@H]1O [streptomycin] | –
